The values below come from US10722501B2 (BAYER AKTIENGESELLSCHAFT, priority 2016, dated 2020).

As usually defined, the IC50 is the midpoint of a concentration-inhibition curve.

The target of this experiment is T1, recombinant full-length human prolyl endopeptidase (PREP) (Homo sapiens, UniProt P48147).
T1 construct: To recombinant full-length human prolyl endopeptidase (PREP, R&D-Systems, 4308-SE); purchased R&D-Systems 4308-SE
T1 sequence (P48147 1-710): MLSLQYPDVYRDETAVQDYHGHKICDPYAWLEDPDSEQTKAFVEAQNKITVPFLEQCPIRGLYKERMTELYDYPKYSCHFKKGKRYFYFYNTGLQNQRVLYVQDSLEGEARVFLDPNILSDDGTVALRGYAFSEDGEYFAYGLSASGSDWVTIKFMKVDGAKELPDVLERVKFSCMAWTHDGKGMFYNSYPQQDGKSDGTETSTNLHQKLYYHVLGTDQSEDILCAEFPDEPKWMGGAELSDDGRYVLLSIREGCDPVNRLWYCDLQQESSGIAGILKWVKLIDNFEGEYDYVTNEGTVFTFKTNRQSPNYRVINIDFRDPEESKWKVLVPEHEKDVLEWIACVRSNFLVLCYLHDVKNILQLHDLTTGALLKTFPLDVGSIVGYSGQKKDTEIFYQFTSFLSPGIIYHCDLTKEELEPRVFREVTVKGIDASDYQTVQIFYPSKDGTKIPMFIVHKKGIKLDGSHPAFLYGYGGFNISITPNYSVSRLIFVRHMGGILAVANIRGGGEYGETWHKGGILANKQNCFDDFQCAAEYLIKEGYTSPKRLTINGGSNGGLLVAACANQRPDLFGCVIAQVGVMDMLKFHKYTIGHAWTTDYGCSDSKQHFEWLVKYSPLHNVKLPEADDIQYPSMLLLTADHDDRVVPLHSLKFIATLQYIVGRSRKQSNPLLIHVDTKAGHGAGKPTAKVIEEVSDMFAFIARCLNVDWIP
Description: Biochemical human prolyl endopeptidase (PREP) assay with fluorescently labelled substrate. The following applies: substrate Z-Gly-Pro-AMC 50 μM, 32° C., 60 min; some as mean values from multiple independent determinations. A digest of the protocol:
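Initial rates of fluorescence increase from 50 μM Z-Gly-Pro-AMC cleavage (ex 360/em 465 nm, 60 min, 32° C) give percent PREP activity versus no-compound control, and IC50 is interpolated. Enzyme used at 0.4 nM (final, example) in Tris pH 7.5 with EDTA, GSH, BSA and Brij-35; compounds span 1 nM to 30 μM.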
As for `O=C(C1CC(C(F)(F)F)Cc2nn(Cc3cncc(Cl)c3)c(=O)n21)N1C[C@@H](F)[C@@H](F)C1` (single isomer, unassigned) [Example 269], the IC50 is 4.2 nM.

As for `O=C(C1CCC(C(F)(F)F)c2nn(Cc3ccc(C(F)(F)F)nc3)c(=O)n21)N1CC[C@H](F)C1` (single isomer, unassigned) [Example 272], the IC50 came out at 0.695 nM.

As to `O=C(C1C(C(F)(F)F)CCc2nn(Cc3ccnc(C(F)(F)F)c3F)c(=O)n21)N1CC[C@H](F)C1` (single isomer, unassigned) [Example 281], the IC50 is 2.2 nM.

For the compound `O=C(C1C(C(F)(F)F)CCc2nn(Cc3ncc(Cl)cc3Cl)c(=O)n21)N1CC[C@H](F)C1` (single isomer, unassigned) [Example 283], the IC50 came out at 6.2 nM.

For the compound `O=C(C1C(C(F)(F)F)CCc2nn(Cc3ccc(C(F)(F)F)nc3)c(=O)n21)N1CC[C@H](F)C1` (single isomer, unassigned) [Example 285], the IC50 was 1.3 nM.

Regarding `O=C(C1C(C(F)(F)F)CCc2nn(Cc3ccc(C(F)(F)F)nc3)c(=O)n21)N1CC[C@H](F)C1` (single isomer, unassigned) [Example 286], the IC50 is 98.5 nM.

In the case of `O=C(C1C(C(F)(F)F)CCc2nn(Cc3ncc(Cl)cc3Cl)c(=O)n21)N1C[C@@H](F)[C@@H](F)C1` (single isomer, unassigned) [Example 288], the IC50 was found to be 16 nM.

Consider `O=C(C1C(C(F)(F)F)CCc2nn(Cc3ncc(Cl)cc3Cl)c(=O)n21)N1CCC(F)(F)C1` (single isomer, unassigned) [Example 290, (5RS,6RS)-2-[(3,5-Dichloropyridin-2-yl)methyl]-5-[(3,3-difluoropyrrolidin-1-yl)carbonyl]-6-(trifluoromethyl)-5,6,7,8-tetrahydro[1,2,4]triazolo[4,3-a]pyridin-3(2H)-one], for which the IC50 turned out to be 82 nM.

Consider `O=C(C1C(C(F)(F)F)CCc2nn(Cc3ncc(Cl)cc3F)c(=O)n21)N1C[C@@H](F)[C@@H](F)C1` (single isomer, unassigned) [Example 292], for which the IC50 came to 37 nM.

In the case of `O=C(C1C(C(F)(F)F)CCc2nn(Cc3ncc(Cl)cc3F)c(=O)n21)N1C[C@@H](F)[C@@H](F)C1` (single isomer, unassigned) [Example 293], the IC50 is 85 nM.

For `O=C(C1C(C(F)(F)F)CCc2nn(Cc3ncc(Cl)cc3F)c(=O)n21)N1CC[C@H](F)C1` (single isomer, unassigned) [Example 295], the IC50 is 12 nM.

Consider `O=C(C1C(C(F)(F)F)CCc2nn(Cc3ncc(Cl)cc3F)c(=O)n21)N1CCC(F)(F)C1` (single isomer, unassigned) [Example 297, (5RS,6RS)-2-[(5-Chloro-3-fluoropyridin-2-yl)methyl]-5-[(3,3-difluoropyrrolidin-1-yl)carbonyl]-6-(trifluoromethyl)-5,6,7,8-tetrahydro[1,2,4]triazolo[4,3-a]pyridin-3(2H)-one], for which the IC50 is 115 nM.

On to `O=C(C1C(C(F)(F)F)CCc2nn(Cc3ccc(Cl)cn3)c(=O)n21)N1CC[C@H](F)C1` (single isomer, unassigned) [Example 299], for which the concentration for half-maximal inhibition (IC50) is 3.5 nM.

Regarding `O=C(C1C(C(F)(F)F)CCc2nn(Cc3ccc(Cl)cn3)c(=O)n21)N1C[C@@H](F)[C@@H](F)C1` (single isomer, unassigned) [Example 301], the IC50 is 19.5 nM.

For `O=C(C1C(C(F)(F)F)CCc2nn(Cc3ccnc(C(F)(F)F)c3F)c(=O)n21)N1CC(F)C1` (single isomer, unassigned) [Example 303, (5RS,6RS)-5-[(3-Fluoroazetidin-1-yl)carbonyl]-2-{[3-fluoro-2-(trifluoromethyl)pyridin-4-yl]methyl}-6-(trifluoromethyl)-5,6,7,8-tetrahydro[1,2,4]triazolo[4,3-a]pyridin-3(2H)-one], the concentration for half-maximal inhibition (IC50) came to 35 nM.

For the compound `O=C(C1C(C(F)(F)F)CCc2nn(Cc3ccc(C(F)(F)F)nc3)c(=O)n21)N1CC(F)C1` (single isomer, unassigned) [Example 305, (5RS,6RS)-5-[(3-Fluoroazetidin-1-yl)carbonyl]-6-(trifluoromethyl)-2-{[6-(trifluoromethyl)pyridin-3-yl]methyl}-5,6,7,8-tetrahydro[1,2,4]triazolo[4,3-a]pyridin-3(2H)-one], the IC50 came to 14 nM.

As for `O=C(C1C(C(F)(F)F)CCc2nn(Cc3ncc(Cl)cc3Cl)c(=O)n21)N1CC(F)C1` (single isomer, unassigned) [Example 307, (5RS,6RS)-2-[(3,5-Dichloropyridin-2-yl)methyl]-5-[(3-fluoroazetidin-1-yl)carbonyl]-6-(trifluoromethyl)-5,6,7,8-tetrahydro[1,2,4]triazolo[4,3-a]pyridin-3(2H)-one], the IC50 came out at 98.5 nM.

Regarding `O=C(C1C(C(F)(F)F)CCc2nn(Cc3ncc(Cl)cc3F)c(=O)n21)N1CC(F)C1` (single isomer, unassigned) [Example 309, (5RS,6RS)-2-[(5-Chloro-3-fluoropyridin-2-yl)methyl]-5-[(3-fluoroazetidin-1-yl)carbonyl]-6-(trifluoromethyl)-5,6,7,8-tetrahydro[1,2,4]triazolo[4,3-a]pyridin-3(2H)-one], the IC50 came to 64 nM.

Regarding `O=C(C1C(C(F)(F)F)CCc2nn(Cc3ccc(Cl)cn3)c(=O)n21)N1CC(F)C1` (single isomer, unassigned) [Example 311, (5RS,6RS)-2-[(5-Chloropyridin-2-yl)methyl]-5-[(3-fluoroazetidin-1-yl)carbonyl]-6-(trifluoromethyl)-5,6,7,8-tetrahydro[1,2,4]triazolo[4,3-a]pyridin-3(2H)-one], the IC50 was found to be 30 nM.

Take `O=C(C1CC(C(F)(F)F)Cc2nn(Cc3ccc(C(F)(F)F)nc3)c(=O)n21)N1CCC(F)(F)C1` (single isomer, unassigned) [Example 313, (5RS,7RS)-5-[(3,3-Difluoropyrrolidin-1-yl)carbonyl]-7-(trifluoromethyl)-2-{[6-(trifluoromethyl)pyridin-3-yl]methyl}-5,6,7,8-tetrahydro[1,2,4]triazolo[4,3-a]pyridin-3(2H)-one]: the IC50 was determined as 4 nM.

Regarding `O=C(C1CC(C(F)(F)F)Cc2nn(Cc3ccc(Cl)cn3)c(=O)n21)N1CC[C@H](F)C1` (single isomer, unassigned) [Example 315], the 50% inhibitory concentration (IC50) came out at 1.4 nM.

In the case of `O=C(C1CC(C(F)(F)F)Cc2nn(Cc3cncc(Cl)c3)c(=O)n21)N1CC[C@H](F)C1` (single isomer, unassigned) [Example 317], the IC50 was 0.41 nM.

In the case of `O=C(C1CC(C(F)(F)F)Cc2nn(Cc3cncc(Cl)c3)c(=O)n21)N1CC[C@H](F)C1` (single isomer, unassigned) [Example 318], the IC50 is 518 nM.

In the case of `CC1Cc2nn(Cc3ccc(C(F)(F)F)nc3)c(=O)n2C(C(=O)N2C[C@@H](F)[C@@H](F)C2)C1` (single isomer, unassigned) [Example 337], the IC50 was 7.5 nM.

In the case of `CC1Cc2nn(Cc3ccc(C(F)(F)F)nc3)c(=O)n2C(C(=O)N2C[C@@H](F)[C@@H](F)C2)C1` (single isomer, unassigned) [Example 338], the concentration for half-maximal inhibition (IC50) was determined as 1.5 nM.

With `O=C([C@@H]1CCCc2nn(Cc3ccc(Cl)nc3)c(=O)n21)N1CC(F)C(F)C1` (single isomer, unassigned) [Example 551], the IC50 came to 480 nM.

`O=C([C@@H]1CCCc2nn(Cc3ccc(Cl)nc3)c(=O)n21)N1CC(F)C(F)C1` (single isomer, unassigned) [Example 552]: the IC50 came out at 6.4 nM.

In the case of `O=C([C@@H]1CCCc2nn(Cc3ccc(C(F)(F)F)nc3)c(=O)n21)N1CC(F)C(F)C1` (single isomer, unassigned) [Example 553], the 50% inhibitory concentration (IC50) turned out to be 575 nM.

On to `O=C([C@@H]1CCCc2nn(Cc3ccc(C(F)(F)F)nc3)c(=O)n21)N1CC(F)C(F)C1` (single isomer, unassigned) [Example 554], for which the IC50 was 10 nM.

In the case of `O=C(C1CC(C(F)(F)F)Cc2nn(Cc3ncc(C(F)(F)F)cc3Cl)c(=O)n21)N1CC[C@H](F)C1` (single isomer, unassigned) [Example 563], the half-inhibitory concentration (IC50) was found to be 0.33 nM.

As to `O=C(C1CC(C(F)(F)F)Cc2nn(Cc3ncc(C(F)(F)F)cc3Cl)c(=O)n21)N1CCC(F)(F)C1` (single isomer, unassigned) [Example 565, (5RS,7RS)-2-{[3-Chloro-5-(trifluoromethyl)pyridin-2-yl]methyl}-5-[(3,3-difluoropyrrolidin-1-yl)carbonyl]-7-(trifluoromethyl)-5,6,7,8-tetrahydro[1,2,4]triazolo[4,3-a]pyridin-3(2H)-one], the 50% inhibitory concentration (IC50) is 1.5 nM.
